From patent US20100197710A1, “Methods Of Activating IRS-1 And AKT” (MELIOR PHARMACEUTICALS I, INC., priority 2007, published 2010)

How the values were obtained:
[1] = test system: mouse model of hyperglycemia; experiment: Oral glucose tolerance test; format: in vivo, mice
From the text: Type II diabetes is characterized by high blood glucose level in the presence of normal amounts of insulin. Animal models of type II diabetes involve administering a high level of glucose and measuring blood glucose level and the ability of the experimental animal to maintain glucose homeostasis over time. Several pharmacological structural classes can effectively regulate this hyperglycemic response including sulfonylureas, thiazoladinediones (PPARγ agonists; glitazones) or metformin (glucophage). These drug classes are also clinically approved for use in humans. In the current study, a mouse model of hyperglycemia has been established by administering high level of glucose to mice.
Glucose was formulated in water at a concentration of 150 mg/ml and dosed at a volume of 10 ml/kg to produce a dose of 1.5 g/kg. Glucose was measured using the Ascensia II Elite XL glucose monitor (Bayer). Glucose was measured by taking a small (2 mm) section off the tip of the tail, bleed onto glucose test strip. Data for each time point was analyzed by ANOVA and post-hoc Tukey's test. A p value of less then 0.05 was used to indicate statistical significance. Two studies were conducted with the following Compound 102.
In study 1, mice were dosed with Compound 102 and glucose as follows:
In study 2, mice were dosed with Compound 102 and glucose as follows.
Study 3 tested Compound 102 and was conducted as follows: […]

[2] = test system: Male CD1/ICR mice fed Western Diet; experiment: Western Diet study (weight, food intake, fat pads); format: in vivo
Method: Male CD1/ICR mice were obtained from Harlan. The study was started when mice were 8 weeks of age. Prior to initiation of the study mice fasted for 24 hours. Mice were fed “Western Diet” that was designed to approximate the “typical” human diet of North America and Europe (Research Diets; New Brunswick, N.J.; Western Diet composition). The Western Diet contained greater than 5 times more fat than normal chow. [table] Mice were weighed daily beginning from the start of the 24 hour fasting period. Food intake was monitored continuously. Mice were bled by retroorbital eyebleed on days 7, 14, 21 and 28 after the initiation of the study. On day of REB, mice were dosed 1× with full dose 1 hour prior to bleed. Fat pads were dissected at the end of the study (day 31) weighed and frozen. The following fat pads were dissected: brown, inguinal, axial, mesenteric, renal, and epidydimal. Data were averaged and analyzed by ANOVA followed by a post-hoc Tukey's test with a p value of less then 0.05 indicating a statistical difference.

mice on western diet = experiment: Leptin level in Western Diet treated animals (ELISA); format: in vivo; conditions: mice fed western diet, bled days 7, 14, 21, 28, dosed 1 hour prior to bleed
Method: Blood from mice that were on western diet (Compound 102) were analyzed for leptin level. Mice were bled by retroorbital eyebleed on days 7, 14, 21 and 28 after the initiation of the study. On day of REB, mice were dosed once with full dose 1 hour prior to bleed. Leptin level was determined by ELISA (R&D Systems) as per directions. Data are expressed as the average±SEM. Data were averaged and analyzed by ANOVA followed by a post-hoc Tukey's test with a p value of less then 0.05 indicating a statistical difference.

[3] = test system: Db/Db Leptin Receptor deficient diabetes/metabolic syndrome animal model; experiment: In vivo Db/Db mouse study, glucose study; conditions: Db/Db mice
Method: (§1) Db/Db and Db/lean mice were obtained from Harlan at 6 weeks of age. Mice were housed 3 per cage and fed ad libitum normal rodent chow. Mice were kept on a 12 hour light:dark cycle.
(§2) The study was initiated when mice reached an age of 8 weeks and their baseline blood glucose level was greater than 200 mg/dl. Compound 102 was formulated in PBS:2N HCl (99:1) at concentrations of 0.5, 1.5 and 5 mg/ml. Mice were dosed at volumes of 10 ml/kg to produce doses of 5, 15 and 50 mg/kg/dose. Mice were dosed twice per day at an 8 hour interval (8 am and 4 pm) during the light cycle.
For the acute blood glucose measurements, blood glucose level was measured after the animals received their first dose of Compound 102. Blood glucose level was measured two hours after this initial injection.
In this study, mice were dosed with Compound 102 IP, twice/day over the course of four weeks.

Db/Db mice = experiment: In vivo Db/Db mouse study, obesity study; conditions: 28 days
Method: as §1, §2
Mice were administered vehicle or drug (i.e., Compound 102) (5, 15, and 50 mg/kg) twice per day (bid) for the 28 days. Mouse weight and food intake were monitored daily. Food intake is reported as food intake (grams) per mouse per 24 hour period.

Zucker rats = experiment: In vivo Zucker rat glucose study; conditions: 30 mg/kg ip, glucose 1.5 g/kg oral gavage, 30 and 270 minutes after glucose
Method: Zucker rats and corresponding lean rats were supplied by Harlan. Rats were fed a normal diet, ad libitum, and kept on a 12 hour light/dark cycle. Rats were housed 3 per cage. At 12 weeks of age, Zucker rats were administered Compound 102 at a concentration of 30 mg/kg (ip). Blood glucose level was measured 30 minutes after administration. Forty-five minutes after drug administration, animals were administered a glucose solution (1.5 g/kg) by oral gavage. Blood glucose level was measured every 30 minutes after gavage for 4.5 hours. There were 3 groups with 3 animals per group: 1) 3 Zucker leans (no drug; no glucose treatment); 2) Zucker vehicle treated group (glucose challenged); and 3) Zucker Compound 102 treatment (30 mg/kg); glucose challenged.

IRS-1 = IRS-1 phosphorylation in vivo (immunoprecipitation); conditions: mice, fat pads and livers removed ninety minutes after drug administration, FIGS. 2A, 2B
Method: (§3) The following studies were conducted to determine whether Compound 102 activated lyn kinase in vivo. This determination was conducted by measuring activation (phosphorylation) of downstream substrates of Lyn in mice treated with Compound 102. Referring to FIGS. 2A, 2B, and 3, mice were administered Compound 102 at the indicated dose. Ninety minutes after drug administration, fat pads and livers were removed. IRS-1 phosphorylation was measured by immunoprecipitation using an anti-phosphotyrosine antibody and probing with either IRS-1 or AKT antibody.

AKT = AKT phosphorylation in vivo (immunoprecipitation); conditions: mice, fat pads and livers removed ninety minutes after drug administration, FIG. 3
Method: as §3

[4] = study 1, mice, single administration, 30 mg/kg
[5] = IP twice/day over four weeks, 5, 15, 50 mg/kg

Question: For `Cc1cccc(Oc2cnc(=O)[nH]c2)c1` [Compound 102], which “normal blood glucose level (pre-glucose loading)” value [1, 4] is on record?
Answer: significantly decreased

Question: And the “time after drug administration at which significance was lost” value [1, 4]?
Answer: 90 min

Question: What about the “blood glucose level produced by oral glucose administration” value ([1]; study 1, mice, single administration, 30 mg/kg, oral glucose 1.5 g/kg) of the same molecule?
Answer: significantly attenuated

Question: And the “effect on blood glucose level” value ([1]; study 2, mice, increased (repeated) dosing)?
Answer: more dramatic effect

Question: And the “brown, axial, inguinal, renal and epididymal fat pad increases” value ([2]; fat pads dissected day 31)?
Answer: significantly reduced

Question: What about the “weight gain (absolute weight and weight change from day 0)” value ([2]; highest dose tested 30 mg/kg/day) of the same molecule?
Answer: significantly reduced

Question: And the blood leptin level (mice on western diet)?
Answer: reduced leptin level to those fed a normal diet

Question: And the “acute blood glucose response in dose groups” value ([3]; 15 mg/kg and 50 mg/kg dose groups, upon study initiation and on weekly blood glucose testing)?
Answer: acute dose response

Question: What about the animal weight gain [3, 5] of the same molecule?
Answer: dose dependent effect

Question: And the blood glucose level [3, 5]?
Answer: dose dependent effect

Question: What about the “blood glucose level following acute administration” value ([3]; measured two hours after first dose) of the same molecule?
Answer: reduce blood glucose level

Question: What about the weight-gain response (Db/Db mice; chronic administration, 5, 15, 50 mg/kg bid) of the same molecule?
Answer: significantly inhibited

Question: And the defecation (Db/Db mice; chronic administration, bid)?
Answer: defecated normally

Question: What about the “blood glucose level after oral glucose administration” value (Zucker rats) of the same molecule?
Answer: reduced blood glucose level

Question: And the “phosphorylation of IRS-1” value (IRS-1)?
Answer: increases

Question: And the “phosphorylation of AKT” value (AKT)?
Answer: increases

Question: How did the “baseline blood glucose level” value ([1]; mice, single dose of 2 or 10 mg/kg) turn out when `O=c1ncc(Oc2cccc(Cl)c2)c[nH]1` [Compound 105] was run?
Answer: significantly depressed

Question: What about the “blood glucose level at all time points after administration” value ([1]; mice, single dose of 2 or 10 mg/kg, P<0.05) of the same molecule?
Answer: significantly (P<0.05) reduced

Question: `CN(C)C(=N)N=C(N)N` [metformin, reference compound] was tested. Which blood glucose load ([1]; validation of the mouse model of hyperglycemia) did it give?
Answer: effectively reduce
